Results as given in US11185593B2, “Alkylating agent for alkylating target with driver oncogene mutation” (Chiba Prefecture, priority 2013, dated 2021).
Where two headings read alike, the source gives them in different places.

Columns and labels:
[1] = tested on: colon cancer and pancreatic cancer cell lines; assay: Cytotoxicity test on various cancer cells, summary by KRAS codon 12 status; type: cell-based; conditions: Homo sapiens
Method: (§1) Using colon cancer and pancreatic cancer cell lines, the cells were seeded in each well of a 96-well microplate, resulting in a cell density of 3000 to 5000 cells/well, and they were then cultured overnight. On the following day, the cells of each type were treated with KR12 recognizing a codon 12 mutation in concentrations of 1 nM, 10 nM, 30 nM, 100 nM, 300 nM, and 1 μM for 48 hours. Thereafter, a WST-8 reagent was added to each well, using cell counting kit-8, and the obtained mixture was then reacted for 2 hours. After that, the number of cells was counted at a wavelength of 450 nm according to a colorimetric analysis method using a microplate reader. The method of counting the number of cells comprises: 1) obtaining the mean value of the medium alone, 2) subtracting the mean value of the medium from each well, 3) obtaining the mean value of DMSO, 4) dividing the medium-subtracted value by the mean value of DMSO and then multiplying by 100, 5) obtaining the mean value of each treatment group and a standard deviation, and then preparing a graph. The calculation formula of IC50 is the following: IC50=10 (LOG (A/B)×(50−C)/(D−C)+LOG (B)), wherein A: a higher concentration of two concentrations sandwiching 50%, B: a lower concentration of two concentrations sandwiching 50%, C: inhibitory percentage at B, and D: inhibitory percentage at A. […]

[2] = tested on: LS180 cells; assay: Cytotoxicity test, WST-8 (cell counting kit-8), 48 hours; type: cell-based, human; conditions: Homo sapiens
Method: Using LS180 colon cell line, the cells were seeded in each well of a 96-well microplate, resulting in a cell density of 3000 to 5000 cells/well, and they were then cultured overnight. On the following day, KR12 recognizing a codon 12 mutation, WT recognizing wild-type KRAS, and C12-Dp having the same structure as that of KR12, to which an alkylating agent had not been added, were each added to the cultured cells in concentrations of 1 nM, 10 nM, 30 nM, 100 nM, 300 nM, and 1 μM, and were then treated for 48 hours. Thereafter, a WST-8 reagent was added to each well, using cell counting kit-8 (DOJINDO), and the obtained mixture was then reacted for 2 hours. After that, the number of cells was counted at a wavelength of 450 nm according to a colorimetric analysis method using a microplate reader. The method of counting the number of cells comprises: 1) obtaining the mean value of the medium alone, 2) subtracting the mean value of the medium from each well, 3) obtaining the mean value of DMSO, 4) dividing the medium-subtracted value by the mean value of DMSO and then multiplying by 100, 5) obtaining the mean value of each treatment group and a standard deviation, and then preparing a graph. The calculation formula of IC50 is the following: IC50=10 (LOG (A/B)×(50−C)/(D−C)+LOG (B)), wherein A: a higher concentration of two concentrations sandwiching 50%, B: a lower concentration of two concentrations sandwiching 50%, C: inhibitory percentage at B, and D: inhibitory percentage at A.
as §1, with “graph.” for “graph. The calculation formula of IC50 is the following: IC50=10 (LOG (A/B)×(50−C)/(D−C)+LOG (B)), wherein A: a higher concentration of two concentrations sandwiching 50%, B: a lower concentration of two concentrations sandwiching 50%, C: inhibitory percentage at B, and D: inhibitory percentage at A.”

[3] = tested on: SW1463; assay: as above; type: cell-based; conditions: SW1463, KRAS G12C Homo, read-out: KR12 IC50
Method: (§2) Using colon cancer and pancreatic cancer cell lines, the cells were seeded in each well of a 96-well microplate, resulting in a cell density of 3000 to 5000 cells/well, and they were then cultured overnight. On the following day, the cells of each type were treated with KR12 recognizing a codon 12 mutation in concentrations of 1 nM, 10 nM, 30 nM, 100 nM, 300 nM, and 1 μM for 48 hours. Thereafter, a WST-8 reagent was added to each well, using cell counting kit-8, and the obtained mixture was then reacted for 2 hours. After that, the number of cells was counted at a wavelength of 450 nm according to a colorimetric analysis method using a microplate reader. The method of counting the number of cells comprises: 1) obtaining the mean value of the medium alone, 2) subtracting the mean value of the medium from each well, 3) obtaining the mean value of DMSO, 4) dividing the medium-subtracted value by the mean value of DMSO and then multiplying by 100, 5) obtaining the mean value of each treatment group and a standard deviation, and then preparing a graph. The calculation formula of IC50 is the following: IC50=10 (LOG (A/B)×(50−C)/(D−C)+LOG (B)), wherein A: a higher concentration of two concentrations sandwiching 50%, B: a lower concentration of two concentrations sandwiching 50%, C: inhibitory percentage at B, and D: inhibitory percentage at A.
(§3) The cells used in the aforementioned experiment are human cancer cell lines SW480, SW620, SNU-C2B, LS180, SW1463, DLD-1, HT29, and Caco-2 (purchased from European Collection of Cell Cultures (ECACC)).

[4] = tested on: SNU-C2B; assay: as above; type: cell-based; conditions: Homo sapiens, KRAS G12D Hetero, read-out: KR12 IC50
Method: as §2, §3

[5] = tested on: HT-29; assay: as above; type: cell-based; conditions: Homo sapiens, HT-29, KRAS wild type, read-out: KR12 IC50
Method: as §2, §3

[6] = tested on: Caco-2; assay: as above; type: cell-based; conditions: Homo sapiens, Caco-2, KRAS wild type, read-out: KR12 IC50
Method: as §2, §3

[7] = tested on: SW480; assay: as above; type: cell-based; conditions: SW480, KRAS G12V Homo, read-out: KR12 IC50
Method: as §2, §3

[8] = tested on: SW620; assay: as above; type: cell-based; conditions: SW-620, SW620, KRAS G12V Homo, read-out: KR12 IC50
Method: as §2, §3

[9] = tested on: DLD-1; assay: as above; type: cell-based; conditions: Homo sapiens, DLD-1, KRAS G13D Hetero, read-out: KR12 IC50
Method: as §2, §3

[10] = tested on: K375; assay: as above; type: cell-based; conditions: K375, KRAS G12D Hetero, read-out: KR12 IC50
Method: as §2

[11] = tested on: PANC-1; assay: as above; type: cell-based; conditions: Homo sapiens, PANC-1, KRAS G12D Hetero, read-out: KR12 IC50
Method: as §2

[12] = tested on: HT29 (KRAS-WT); assay: Suppression of tumor growth in nude mice, HT29 transplanted; type: in vivo; conditions: nude mice with HT29 cells; 3.4 mmol KR12 via the caudal vein; FIG. 14A
Method: The below-mentioned 3 types of PBS solutions containing each type of cells were subcutaneously transplanted into the femurs of nude mice (i.e., HT29 into 7 mice, LS180 into 7 mice, and SW480 into 6 mice), and thereafter, at a time point in which a tumor adhered to the living body of each mouse and the tumor volume became approximately 100 mm^3, a drug was prepared with a composition of 3.4 mmol KR12 (1.36 mM KR12 dissolved in 2.5 μL of DMSO and 197.5 μL of PBS), or of a DMSO/PBS control (2.5 μL of DMSO and 197.5 μL of PBS). The prepared drug was subjected to sonication for 10 minutes, and 200 μL of the drug was administered to each mouse via the caudal vein thereof. The body weight and the tumor size were measured once three days, and the size of the tumor was measured by the method of 0.52×L×W×D(1/6×π×L×W×D).
HT29 (KRAS-WT): (transplanted in an amount of 2×10^6 cells/100 μl PBS into the subcutis of each mouse; a wild-type KRAS codon 12 cell line having no codon 12 mutations)

With `CC(=O)Nc1cn(C)c(C(=O)Nc2cc(C(=O)NCCC(=O)Nc3cn(C)c(C(=O)Nc4cn(C)c(C(=O)Nc5cc(C(=O)Nc6cn(C)c(C(=O)NCCCC(=O)Nc7cc(C(=O)Nc8cn(C)c(C(=O)NCCC(=O)Nc9cc(C(=O)Nc%10cc(C(=O)Nc%11ccc%12[nH]c(C(=O)N%13CC(CCl)c%14c%13cc(O)c%13ccccc%14%13)cc%12c%11)n(C)c%10)n(C)c9)n8)n(C)c7)n6)n(C)c5)n4)n3)n(C)c2)n1` (centres unmarked) [KR12] the IC50 ([1]; SW1463, DLD-1, HT-29 and Caco-2, cell lines which do not have a codon 12 mutation recognized by KR12) was at least 100 nM, the IC50 ([1]; cell lines having a codon 12 mutation, which is recognized by KR12) was at most 100 nM and the IC50 ([2]; LS180, KRAS G12D Hetero, Table 1, read-out: KR12 IC50) was 42 nM. It also gave an IC50 ([2]; LS180 cells, WST-8, FIG. 8, read-out: IC50) of 53 nM, an IC50 [3] of 178 nM and an IC50 [4] of 57 nM. The IC50 [5] was 102 nM, the IC50 [6] was 105 nM and the IC50 [7] was 31 nM. The IC50 [8] was 17 nM, the IC50 [9] was 153 nM and the IC50 [10] was 78 nM. The IC50 [11] was 81 nM and the tumor growth [12] was “could not be suppressed”.
